Measured values as given in publication PMC7180948, “New Insights into 4-Anilinoquinazolines as Inhibitors of Cardiac Troponin I–Interacting Kinase (TNNi3K)” (Molecules, 2020).

Columns and labels:
Assay in all cases: biochemical
Parameters in all cases: KINOMEscan competition binding panel (Eurofins DiscoverX), single concentration, percent inhibition
Conditions in all cases: read-out: 15 at 1 µM % inhibition
MST1R = MST1R (Homo sapiens, UniProt Q04912)
Outline: (§1)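 Binding was profiled in the KINOMEscan panel of over 400 human kinases, with each compound tested at a single concentration of 1 µM to map selectivity.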

KIT(V559D,T670I) = KIT(V559D,T670I) (Homo sapiens, UniProt P10721, T670I/V559D)
Outline: as §1

DRAK1 = biological target: T1, DRAK1 (Homo sapiens, UniProt Q9UEE5)
T1 construct: gene STK17A
T1 sequence (Q9UEE5 whole entry): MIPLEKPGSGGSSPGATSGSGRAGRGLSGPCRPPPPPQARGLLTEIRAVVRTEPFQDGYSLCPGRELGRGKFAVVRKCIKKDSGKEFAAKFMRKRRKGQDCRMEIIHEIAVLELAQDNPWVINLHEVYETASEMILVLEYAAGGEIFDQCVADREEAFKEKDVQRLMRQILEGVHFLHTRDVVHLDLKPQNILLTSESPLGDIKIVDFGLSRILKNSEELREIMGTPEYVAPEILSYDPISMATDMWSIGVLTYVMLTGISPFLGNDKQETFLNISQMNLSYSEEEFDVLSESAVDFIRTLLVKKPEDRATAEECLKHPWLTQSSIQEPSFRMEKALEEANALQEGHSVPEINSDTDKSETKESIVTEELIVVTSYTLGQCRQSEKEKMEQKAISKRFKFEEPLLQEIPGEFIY
Outline: as §1

MAP3K15 = MAP3K15 (Homo sapiens, UniProt Q6ZN16)
Outline: as §1

PYK2 = biological target: T2, PYK2 (Homo sapiens, UniProt Q14289)
T2 construct: gene PTK2B
Outline: as §1

MYLK2 = MYLK2 (Homo sapiens, UniProt Q9H1R3)
Outline: as §1

FLT4 = FLT4 (Homo sapiens, UniProt P35916)
FLT4, sequence (P35916 whole entry): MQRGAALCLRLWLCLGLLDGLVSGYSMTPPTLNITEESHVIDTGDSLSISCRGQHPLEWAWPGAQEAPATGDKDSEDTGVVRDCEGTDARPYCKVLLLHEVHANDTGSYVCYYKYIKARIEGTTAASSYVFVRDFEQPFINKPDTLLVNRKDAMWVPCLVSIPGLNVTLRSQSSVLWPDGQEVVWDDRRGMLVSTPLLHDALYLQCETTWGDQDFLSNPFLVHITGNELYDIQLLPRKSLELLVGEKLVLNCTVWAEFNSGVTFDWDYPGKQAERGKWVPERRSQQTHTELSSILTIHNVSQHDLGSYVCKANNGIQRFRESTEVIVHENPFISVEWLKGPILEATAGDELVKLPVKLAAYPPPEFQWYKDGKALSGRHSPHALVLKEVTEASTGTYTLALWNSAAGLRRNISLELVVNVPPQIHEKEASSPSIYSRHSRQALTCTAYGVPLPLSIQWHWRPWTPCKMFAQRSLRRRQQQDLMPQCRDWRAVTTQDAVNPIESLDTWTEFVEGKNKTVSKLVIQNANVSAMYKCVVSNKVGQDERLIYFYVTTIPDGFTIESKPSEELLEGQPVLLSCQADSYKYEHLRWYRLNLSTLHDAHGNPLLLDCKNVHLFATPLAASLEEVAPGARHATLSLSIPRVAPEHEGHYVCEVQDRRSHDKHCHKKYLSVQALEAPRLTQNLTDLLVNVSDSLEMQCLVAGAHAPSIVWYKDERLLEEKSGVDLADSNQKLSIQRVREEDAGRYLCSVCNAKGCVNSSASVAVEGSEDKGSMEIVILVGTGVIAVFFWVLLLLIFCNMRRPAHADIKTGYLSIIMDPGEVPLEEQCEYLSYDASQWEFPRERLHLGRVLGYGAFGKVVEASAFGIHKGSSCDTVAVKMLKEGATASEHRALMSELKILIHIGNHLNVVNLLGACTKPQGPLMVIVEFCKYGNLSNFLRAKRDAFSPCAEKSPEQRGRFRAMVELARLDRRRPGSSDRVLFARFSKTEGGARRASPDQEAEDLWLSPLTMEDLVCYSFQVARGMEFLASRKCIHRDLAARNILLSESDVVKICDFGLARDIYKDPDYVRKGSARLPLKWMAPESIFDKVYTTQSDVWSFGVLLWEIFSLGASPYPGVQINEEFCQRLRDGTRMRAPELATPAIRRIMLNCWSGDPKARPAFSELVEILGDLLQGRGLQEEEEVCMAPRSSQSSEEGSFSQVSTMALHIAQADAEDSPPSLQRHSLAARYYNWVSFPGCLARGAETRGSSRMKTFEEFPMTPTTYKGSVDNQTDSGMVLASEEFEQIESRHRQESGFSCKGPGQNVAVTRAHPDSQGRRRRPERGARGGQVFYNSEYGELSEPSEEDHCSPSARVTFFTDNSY
Outline: as §1

PRKCE = PRKCE (Homo sapiens, UniProt Q02156)
Outline: as §1

MAP3K2 = MAP3K2 (Homo sapiens, UniProt Q9Y2U5)
Outline: as §1

CSNK1G1 = CSNK1G1 (Homo sapiens, UniProt Q9HCP0)
CSNK1G1, sequence (Q9HCP0 whole entry): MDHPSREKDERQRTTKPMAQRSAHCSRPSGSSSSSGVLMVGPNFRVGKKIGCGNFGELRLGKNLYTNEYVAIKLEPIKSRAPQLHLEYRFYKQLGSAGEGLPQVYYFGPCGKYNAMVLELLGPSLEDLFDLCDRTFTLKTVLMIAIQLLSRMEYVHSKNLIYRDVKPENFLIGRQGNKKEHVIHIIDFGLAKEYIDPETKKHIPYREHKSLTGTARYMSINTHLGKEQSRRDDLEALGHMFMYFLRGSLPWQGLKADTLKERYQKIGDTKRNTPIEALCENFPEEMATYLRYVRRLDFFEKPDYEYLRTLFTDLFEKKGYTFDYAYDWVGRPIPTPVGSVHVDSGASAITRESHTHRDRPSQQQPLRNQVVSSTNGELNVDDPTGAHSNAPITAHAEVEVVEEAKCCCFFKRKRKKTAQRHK
Outline: as §1

PIK3CA(M1043I) = PIK3CA(M1043I) (Homo sapiens, UniProt P42336, M1043I)
Outline: as §1

[1] = biological target: T3, RSK1(Kin.Dom.2-C-terminal) (Homo sapiens, UniProt Q15418)
T3 construct: gene RPS6KA1; Kin.Dom.2-C-terminal
Outline: as §1

PRKD1 = PRKD1 (Homo sapiens, UniProt Q15139)
Outline: as §1

EGFR(S752-I759del) = EGFR(S752-I759del) (Homo sapiens, UniProt P00533, DEL752-759)
Outline: as §1

NLK = NLK (Homo sapiens, UniProt Q9UBE8)
Outline: as §1

FER = FER (Homo sapiens, UniProt P16591)
FER, sequence (P16591 whole entry): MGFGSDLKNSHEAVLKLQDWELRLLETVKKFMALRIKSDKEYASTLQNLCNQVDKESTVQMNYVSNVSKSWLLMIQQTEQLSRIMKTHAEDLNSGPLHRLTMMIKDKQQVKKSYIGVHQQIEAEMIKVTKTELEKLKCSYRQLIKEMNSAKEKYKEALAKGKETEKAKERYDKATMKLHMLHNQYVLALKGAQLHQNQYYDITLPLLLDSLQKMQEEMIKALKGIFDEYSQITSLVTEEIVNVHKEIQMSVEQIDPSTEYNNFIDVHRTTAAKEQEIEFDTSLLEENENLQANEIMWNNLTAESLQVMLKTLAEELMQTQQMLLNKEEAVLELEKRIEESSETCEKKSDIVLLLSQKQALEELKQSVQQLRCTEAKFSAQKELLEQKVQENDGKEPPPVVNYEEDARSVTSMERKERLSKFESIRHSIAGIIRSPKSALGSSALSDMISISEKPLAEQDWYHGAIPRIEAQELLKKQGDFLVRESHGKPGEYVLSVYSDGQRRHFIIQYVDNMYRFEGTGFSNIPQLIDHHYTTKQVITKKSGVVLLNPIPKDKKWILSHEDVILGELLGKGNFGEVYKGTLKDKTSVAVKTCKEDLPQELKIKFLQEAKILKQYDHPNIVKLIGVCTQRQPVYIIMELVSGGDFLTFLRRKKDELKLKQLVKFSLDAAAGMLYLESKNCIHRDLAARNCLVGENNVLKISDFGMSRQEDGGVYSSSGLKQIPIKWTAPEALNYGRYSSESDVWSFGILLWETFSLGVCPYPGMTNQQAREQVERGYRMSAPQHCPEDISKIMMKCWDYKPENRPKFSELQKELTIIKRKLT
Outline: as §1

FAK = biological target: T4, FAK (Homo sapiens, UniProt Q05397)
T4 construct: gene PTK2
Outline: as §1

FES = FES (Homo sapiens, UniProt P07332)
FES, sequence (P07332 whole entry): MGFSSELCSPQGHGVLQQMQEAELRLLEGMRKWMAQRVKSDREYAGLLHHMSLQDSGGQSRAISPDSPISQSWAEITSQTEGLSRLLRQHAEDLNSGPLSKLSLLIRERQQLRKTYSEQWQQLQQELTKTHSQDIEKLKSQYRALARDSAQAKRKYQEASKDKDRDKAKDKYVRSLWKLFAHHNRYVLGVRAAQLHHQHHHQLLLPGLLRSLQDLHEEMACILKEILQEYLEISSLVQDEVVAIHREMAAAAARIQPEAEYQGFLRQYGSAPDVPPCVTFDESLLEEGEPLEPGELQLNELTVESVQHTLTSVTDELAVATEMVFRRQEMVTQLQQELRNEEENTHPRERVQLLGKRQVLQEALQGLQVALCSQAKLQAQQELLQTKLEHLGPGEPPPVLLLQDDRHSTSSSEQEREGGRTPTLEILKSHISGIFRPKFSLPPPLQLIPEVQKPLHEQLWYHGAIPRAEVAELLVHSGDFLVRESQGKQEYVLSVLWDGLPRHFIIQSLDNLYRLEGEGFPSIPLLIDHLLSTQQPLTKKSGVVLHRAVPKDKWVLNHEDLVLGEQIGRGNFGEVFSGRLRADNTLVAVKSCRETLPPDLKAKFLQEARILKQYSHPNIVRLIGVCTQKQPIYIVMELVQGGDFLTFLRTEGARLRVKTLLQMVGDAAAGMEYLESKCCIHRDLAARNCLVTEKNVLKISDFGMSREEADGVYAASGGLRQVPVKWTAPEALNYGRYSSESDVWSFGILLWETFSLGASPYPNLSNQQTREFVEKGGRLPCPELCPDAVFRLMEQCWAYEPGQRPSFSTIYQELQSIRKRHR
Outline: as §1

MAP3K3 = MAP3K3 (Homo sapiens, UniProt Q99759)
Outline: as §1

MARK3 = MARK3 (Homo sapiens, UniProt P27448)
Outline: as §1

[2] = biological target: T5, ABL1(F317L)-phosphorylated (Homo sapiens, UniProt P00519, F317L)
T5 construct: phosphorylated
T5 sequence (P00519 whole entry F317L): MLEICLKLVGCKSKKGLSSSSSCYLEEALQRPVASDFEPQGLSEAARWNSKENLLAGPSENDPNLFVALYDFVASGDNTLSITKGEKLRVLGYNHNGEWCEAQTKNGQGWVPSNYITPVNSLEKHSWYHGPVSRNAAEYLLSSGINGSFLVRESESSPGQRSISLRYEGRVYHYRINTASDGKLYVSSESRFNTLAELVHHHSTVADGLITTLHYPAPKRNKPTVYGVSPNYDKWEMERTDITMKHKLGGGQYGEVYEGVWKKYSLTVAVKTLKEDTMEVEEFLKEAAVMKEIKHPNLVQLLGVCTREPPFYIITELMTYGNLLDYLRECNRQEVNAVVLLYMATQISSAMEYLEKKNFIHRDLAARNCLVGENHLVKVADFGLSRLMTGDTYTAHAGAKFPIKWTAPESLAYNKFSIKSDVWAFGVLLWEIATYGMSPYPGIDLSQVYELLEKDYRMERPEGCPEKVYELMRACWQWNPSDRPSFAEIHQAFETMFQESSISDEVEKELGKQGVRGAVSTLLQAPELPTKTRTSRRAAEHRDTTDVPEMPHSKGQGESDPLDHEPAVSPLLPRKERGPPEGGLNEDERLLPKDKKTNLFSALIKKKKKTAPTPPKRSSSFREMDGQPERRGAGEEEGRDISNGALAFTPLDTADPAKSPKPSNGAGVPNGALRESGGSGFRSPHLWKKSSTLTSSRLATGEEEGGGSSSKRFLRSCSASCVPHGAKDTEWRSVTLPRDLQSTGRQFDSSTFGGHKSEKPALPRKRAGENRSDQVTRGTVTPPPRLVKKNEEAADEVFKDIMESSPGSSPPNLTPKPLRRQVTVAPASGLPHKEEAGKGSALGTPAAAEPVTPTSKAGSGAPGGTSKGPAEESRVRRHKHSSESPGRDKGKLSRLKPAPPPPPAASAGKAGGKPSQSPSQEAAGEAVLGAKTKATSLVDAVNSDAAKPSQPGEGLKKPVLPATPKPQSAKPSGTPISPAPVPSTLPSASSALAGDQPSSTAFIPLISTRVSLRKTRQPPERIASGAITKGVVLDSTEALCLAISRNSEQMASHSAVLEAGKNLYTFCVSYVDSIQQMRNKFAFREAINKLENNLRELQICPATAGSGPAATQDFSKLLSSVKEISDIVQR
Outline: as §1

ANKK1 = ANKK1 (Homo sapiens, UniProt Q8NFD2)
Outline: as §1

CTK = biological target: T6, CTK (Homo sapiens, UniProt P42679)
T6 construct: gene MATK
Outline: as §1

STK39 = STK39 (Homo sapiens, UniProt Q9UEW8)
Outline: as §1

inhibition at 1 µM (MST1R): 9%
inhibition at 1 µM (KIT(V559D,T670I)): 0%
inhibition at 1 µM (DRAK1): 0%
inhibition at 1 µM (MAP3K15): 28%
inhibition at 1 µM (PYK2): 0%
inhibition at 1 µM (MYLK2): 3%
inhibition at 1 µM (FLT4): 0%
inhibition at 1 µM (PRKCE): 11%
inhibition at 1 µM (MAP3K2): 18%
inhibition at 1 µM (CSNK1G1): 0%
inhibition at 1 µM (PIK3CA(M1043I)): 0%
inhibition at 1 µM [1]: 5%
inhibition at 1 µM (PRKD1): 15%
inhibition at 1 µM (EGFR(S752-I759del)): 9%
inhibition at 1 µM (NLK): 0%
inhibition at 1 µM (FER): 0%
inhibition at 1 µM (FAK): 0%
inhibition at 1 µM (FES): 0%
inhibition at 1 µM (MAP3K3): 44%
inhibition at 1 µM (MARK3): 0%
inhibition at 1 µM [2]: 0%
inhibition at 1 µM (ANKK1): 24%
inhibition at 1 µM (CTK): 0%
inhibition at 1 µM (STK39): 2%
SMILES: CNS(=O)(=O)c1ccc(N(C)C)c(Nc2nc(C)nc3cc(OC)c(OC)cc23)c1 [compound 15, 3-((6,7-dimethoxy-2-methylquinazolin-4-yl)amino)-4-(dimethylamino)-N-methylbenzenesulfonamide]
